“And” between values parts separate entries of the source, which are not always exact repeats. Identical values can stand only once.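 Exposure lasted 48 hours, with cells grown in 96-well plates and compounds tested at five concentrations. The concentration for 50% growth inhibition is given as GI50. The concentration for full growth arrest is given as TGI.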

Among the test systems are SF-295 CNS; A549 NSCLC; UACC-62 melanoma; SN12C renal; DMS 114 small cell lung; NCI-H226 lung; HOP-18 NSCLC; COLO 205 colon; OVCAR-3 ovarian; NCI-H23 lung.
Common to all, as to assay: NCI anticancer screen, dose series, 48 h

`NNC(=S)N/N=C(/C(=O)Nc1cc(Cl)ccc1Cl)C1C(=O)Nc2ccccc2S1=O` (centres undefined): the TGI in the test on SF-295 CNS, in the test with A549 NSCLC, in the test on UACC-62 melanoma, in the test on SN12C renal, with DMS 114 small cell lung and in the test with NCI-H226 lung was > 100 µM in each case. For the same molecule, the TGI with HOP-18 NSCLC, in the test with COLO 205 colon, in the test with OVCAR-3 ovarian and with NCI-H23 lung was > 100 µM in each case.
`O=C([O][Hg][CH2]C1COC([CH2][Hg][O]C(=O)c2ccccc2)CO1)c1ccccc1` (centres undefined): the GI50 with SF-295 CNS is 19.2 µM and 17.8 µM; with A549 NSCLC, 19.3 µM and 16.4 µM; with UACC-62 melanoma, 16.7 µM and 2.26 µM; in the test on SN12C renal, 12.2 µM and 1.54 µM; in the test with DMS 114 small cell lung, 15 µM; in the test with NCI-H226 lung it was 20.2 µM and 6.31 µM. Besides, the GI50 in the test with HOP-18 NSCLC was 10.8 µM; in the test with COLO 205 colon, 1.98 µM and 1.07 µM; with OVCAR-3 ovarian, 7.93 µM; with NCI-H23 lung, 9.82 µM. Further, the TGI is 41.7 µM and 31.6 µM in the test on SF-295 CNS; 37.6 µM and 33.8 µM in the test with A549 NSCLC; 30.4 µM and 5.09 µM in the test on UACC-62 melanoma; 24.6 µM and 3.02 µM in the test with SN12C renal; 28.8 µM in the test with DMS 114 small cell lung; 39.1 µM and 34 µM in the test on NCI-H226 lung. Besides, the TGI was 23.5 µM in the test with HOP-18 NSCLC; 4.25 µM and 5.21 µM in the test on COLO 205 colon; 21.9 µM with OVCAR-3 ovarian; 23.3 µM in the test with NCI-H23 lung.
Take `C[C@]12CCc3nonc3C1CC[C@@H]1C2CC[C@]2(C)NC(=O)CCC12` (some centres undefined): the TGI in the test on SF-295 CNS, in the test with A549 NSCLC, in the test on UACC-62 melanoma, in the test with SN12C renal, in the test on NCI-H226 lung and in the test with HOP-18 NSCLC was > 100 µM in each case. Further, the TGI in the test with COLO 205 colon, in the test with OVCAR-3 ovarian and in the test with NCI-H23 lung was > 100 µM in each case.
Consider `CN[C@@H](C)[C@@H](N)c1ccccc1`, for which the TGI in the test on SF-295 CNS, in the test on A549 NSCLC, with UACC-62 melanoma, in the test with SN12C renal, with NCI-H226 lung and in the test on HOP-18 NSCLC was > 100 µM each time. Moreover, the TGI in the test with COLO 205 colon, in the test with OVCAR-3 ovarian and in the test with NCI-H23 lung was > 100 µM in each case.
`CN(N=O)C(=O)N[C@@H](C=O)[C@@H](O)[C@H](O)[C@H](O)CO`: the GI50 in the test on SF-295 CNS, with A549 NSCLC, with UACC-62 melanoma, with SN12C renal, with DMS 114 small cell lung and in the test on NCI-H226 lung was > 750 µM each time. Also, the GI50 in the test on HOP-18 NSCLC, with COLO 205 colon and in the test with NCI-H23 lung was > 750 µM throughout. For the same molecule, the TGI is 621 µM and > 750 µM with SF-295 CNS; > 750 µM in the test on A549 NSCLC; > 750 µM in the test with UACC-62 melanoma; 603 µM and > 750 µM in the test with SN12C renal; 599 µM and > 750 µM in the test on DMS 114 small cell lung; > 750 µM in the test on NCI-H226 lung. Moreover, the TGI in the test on HOP-18 NSCLC was 216 µM and > 750 µM; in the test with COLO 205 colon, 640 µM and > 750 µM; in the test on OVCAR-3 ovarian it was 670 µM; in the test on NCI-H23 lung it was > 750 µM.
For the molecule `O=C1c2ccccc2C(=O)c2c(NCCNCCO)ccc(O)c21`, the TGI with SF-295 CNS stood at 15.8 µM; with A549 NSCLC it was 11.2 µM; with UACC-62 melanoma, 13.6 µM; in the test with SN12C renal, 12.8 µM; in the test on DMS 114 small cell lung it was 17.4 µM; in the test on NCI-H226 lung, 6.56 µM. Besides, the TGI with HOP-18 NSCLC is 21.4 µM; with COLO 205 colon, 10.3 µM; with OVCAR-3 ovarian, 19.5 µM; in the test with NCI-H23 lung, 12 µM.
For `COc1ccc(C(=O)C(C(=O)C(=O)Nc2ccc(Cl)c(Cl)c2)c2ccc(OC)cc2)cc1` (centres undefined), the TGI in the test on SF-295 CNS, in the test on A549 NSCLC, in the test with UACC-62 melanoma, in the test with SN12C renal, in the test on DMS 114 small cell lung and in the test on NCI-H226 lung was > 100 µM throughout. The TGI in the test on HOP-18 NSCLC, in the test with OVCAR-3 ovarian and in the test with NCI-H23 lung was > 100 µM each time.
As for `CC/C(=C(/CC)c1ccc([O-])cc1)c1ccc([O-])cc1.CC/C(=C(\CC)c1ccc([O-])cc1)c1ccc([O-])cc1.O=C([CH-]C(=O)c1ccccc1)c1ccccc1.O=C([CH-]C(=O)c1ccccc1)c1ccccc1.O=C([CH-]C(=O)c1ccccc1)c1ccccc1.O=C([CH-]C(=O)c1ccccc1)c1ccccc1.[Ti+4].[Ti+4]`, the GI50 in the test on SF-295 CNS is 19.9 µM; in the test on A549 NSCLC, 18.9 µM; in the test on UACC-62 melanoma, 18.9 µM; in the test on SN12C renal, 47.1 µM; in the test on NCI-H226 lung, 28.1 µM; in the test on HOP-18 NSCLC it was 83.4 µM. Besides, the GI50 in the test on COLO 205 colon is 37.9 µM; with OVCAR-3 ovarian, 24.9 µM; in the test with NCI-H23 lung, 25.9 µM. For the same molecule, the TGI is 42.6 µM in the test on SF-295 CNS; 47.9 µM in the test with A549 NSCLC; 52.4 µM in the test with UACC-62 melanoma; > 100 µM in the test on SN12C renal; 61.2 µM in the test with NCI-H226 lung; > 100 µM in the test on HOP-18 NSCLC. The TGI with COLO 205 colon was > 100 µM; with OVCAR-3 ovarian, > 100 µM; in the test with NCI-H23 lung it was 97.3 µM.

Source of the values: PubChem BioAssay (NCI).
